System: HL-60
Assay: In vitro inhibitory activity against phospholipase D (PLD) activation in HL-60 cells by phospholipase D assay
Type: cell-based
Conditions: Homo sapiens

**Q.** For `O=C1C(O)=CC2(Oc3cccc4cccc(c34)O2)[C@@]23O[C@@]12[C@@H](O)C=C[C@H]3O`, which IC50 is on record?
**A.** 11 µM

**Q.** With `O=C1C(O)=CC2(Oc3cccc4cccc(c34)O2)[C@@]23O[C@@]12[C@@H](O)CC[C@H]3O` as the compound, how does the IC50 read?
**A.** 12 µM

From ChEMBL document CHEMBL1127761, “Two new phospholipase d inhibitors, sch 49211 and sch 49212, produced by the fungus nattrasia mangirferae” (Bioorg Med Chem Lett, 1994)
